For one assay, the target named is T1, Bcl-2-like protein 10 (Homo sapiens, UniProt Q9HD36).
T1 sequence (Q9HD36 whole entry): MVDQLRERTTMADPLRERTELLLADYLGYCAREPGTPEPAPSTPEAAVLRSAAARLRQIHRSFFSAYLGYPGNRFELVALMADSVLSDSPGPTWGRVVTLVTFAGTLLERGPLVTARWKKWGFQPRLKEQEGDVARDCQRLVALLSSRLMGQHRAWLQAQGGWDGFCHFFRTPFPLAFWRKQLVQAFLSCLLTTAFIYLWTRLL
Kind of assay: Bcl-B/TR3 peptide binding disruption – biochemical, fluorescence polarization, FITC-TR3 peptide, selectivity assay for Bfl-1 inhibitor project, primary screen (AID 748).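 Note: fluorescence polarization from a fluorescein-labelled TR3 peptide binding purified Bcl-B.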

The target in assay [1] is T2, Estrogen receptor beta (Homo sapiens, UniProt Q92731).
Assay [2] concerns the target T2, Estrogen receptor beta. Kind of assay: blockers of SRC-3 recruitment to ERβ – biochemical, ELISA, streptavidin-HRP readout, orthogonal assay, confirmation (AID 1060). (An ELISA detects its analyte on a solid surface through an enzyme-linked reagent.)
A short description of assay [3]: M. tuberculosis H37Rv growth inhibitors, H37Rv strain (AID 1626). The class given is functional.
The nature of assay [4]: viability of uninfected HEp-2 cells – cell-based, HTS, cytotoxicity control for RSV inhibitor project, dose response (AID 2410). Format: functional. The conditions noted are these: human respiratory syncytial virus.
The nature of assay [5]: cells.
Assay [6] can be described thus: Luminescent dose response cell-based high throughput screening assay for inhibitors of the Janus kinase 2 mutant JAK2V617F. [Related pubchem assays: 1446 (Primary screen.), 1521 (Confirmation assay.), 1486 (Counter screen.)]. The class given is functional. (In general: A counterscreen serves to expose hits that act by an unwanted route or on another target.)
In assay [7] the target is T3, Corticotropin-releasing factor receptor 2/Corticotropin-releasing factor-binding protein (Homo sapiens, UniProt P24387+Q13324).
T3 sequence (Q13324 whole entry): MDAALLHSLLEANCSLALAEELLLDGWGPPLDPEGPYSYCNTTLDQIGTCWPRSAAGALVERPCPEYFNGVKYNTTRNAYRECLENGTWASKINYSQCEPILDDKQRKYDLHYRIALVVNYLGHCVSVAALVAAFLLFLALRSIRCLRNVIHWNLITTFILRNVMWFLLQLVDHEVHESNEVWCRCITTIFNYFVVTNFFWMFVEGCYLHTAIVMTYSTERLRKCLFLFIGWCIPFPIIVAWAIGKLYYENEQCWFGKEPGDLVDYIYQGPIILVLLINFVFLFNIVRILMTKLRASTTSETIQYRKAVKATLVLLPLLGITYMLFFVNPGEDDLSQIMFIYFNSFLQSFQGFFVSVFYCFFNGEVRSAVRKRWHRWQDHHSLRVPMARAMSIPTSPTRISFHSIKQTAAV
T3 sequence (P24387 whole entry): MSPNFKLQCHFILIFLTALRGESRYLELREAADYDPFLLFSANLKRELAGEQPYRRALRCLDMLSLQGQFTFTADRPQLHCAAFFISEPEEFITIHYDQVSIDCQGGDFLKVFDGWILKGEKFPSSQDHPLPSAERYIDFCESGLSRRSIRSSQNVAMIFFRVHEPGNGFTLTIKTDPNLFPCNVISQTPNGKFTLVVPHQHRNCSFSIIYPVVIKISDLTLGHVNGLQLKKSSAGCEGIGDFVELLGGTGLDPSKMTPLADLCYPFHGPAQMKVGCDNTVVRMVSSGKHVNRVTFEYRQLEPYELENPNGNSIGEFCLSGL
Kind of assay: activators of CRF receptor 2 with binding protein – uHTS hits, confirmation (AID 602473). Format: functional. The conditions noted are these: read-out: EC50_Mean.

Assay [8] deals with Voltage-gated inwardly rectifying potassium channel KCNH2 (Homo sapiens, UniProt Q12809). Kind of assay: concentration-dependent hERG rescue from blockers – cell-based, thallium flux, dose response (AID 2121). The class given is ADME. Background: hERG is a cardiac potassium channel; its block is linked to QT prolongation.
Assay [9] in a line: NIH3T3 cell viability loss – ATP luminescence, mouse fibroblasts, counter-screen, dose response (AID 2010).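 Note: cells exposed to compound for about 90 hours before reading.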 Format: functional, cell-based.
Assay [10] is described as follows: Trypanosoma cruzi growth suppression in host cells – NIH3T3 host cells, beta-gal luminescence, confirmation (AID 2044).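 Note: intracellular parasites grown in NIH/3T3 mouse fibroblasts as host cells; luminescent beta-galactosidase reporter signal from transgenic T. cruzi replicating inside host cells; inhibitors lower the luminescence signal.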 Format: functional, cell-based.
Assay [11] in a line: cells. This is another data set of the same source.
Assay [12] is described as follows: alpha-synuclein stem-loop luciferase translation blockers – H4 neuroglioma cells, luminescence, confirmation (AID 1988). The class given is functional, cell-based.
The next assay deals with HT-1080. Put plainly: HT1080 cell viability loss – fluorescence readout (AID 620). Format: functional, cell-based. Conditions: Homo sapiens.
The target in assay [13] is Luciferin 4-monooxygenase (Photinus pyralis, UniProt P08659). Put plainly: Counter Screen for Luciferase-based Assay Positives. [Related pubchem assays: 620, 618, 411 ].
Assay [14] in a line: Luminescence Cell-Based Dose Response HTS to Identify Inhibitors of 5'UTR Stem-Loop Driven Prion Protein mRNA Translation in H4 Neuroglioblastoma Cells. [Related pubchem assays: 1827 (Project Summary), 1813 (Primary HTS)]. Format: functional.
Assay [15] concerns the target T4, Replicative DNA helicase DnaB (Mycobacterium tuberculosis, UniProt P9WMR3).
T4 sequence (P9WMR3 whole entry): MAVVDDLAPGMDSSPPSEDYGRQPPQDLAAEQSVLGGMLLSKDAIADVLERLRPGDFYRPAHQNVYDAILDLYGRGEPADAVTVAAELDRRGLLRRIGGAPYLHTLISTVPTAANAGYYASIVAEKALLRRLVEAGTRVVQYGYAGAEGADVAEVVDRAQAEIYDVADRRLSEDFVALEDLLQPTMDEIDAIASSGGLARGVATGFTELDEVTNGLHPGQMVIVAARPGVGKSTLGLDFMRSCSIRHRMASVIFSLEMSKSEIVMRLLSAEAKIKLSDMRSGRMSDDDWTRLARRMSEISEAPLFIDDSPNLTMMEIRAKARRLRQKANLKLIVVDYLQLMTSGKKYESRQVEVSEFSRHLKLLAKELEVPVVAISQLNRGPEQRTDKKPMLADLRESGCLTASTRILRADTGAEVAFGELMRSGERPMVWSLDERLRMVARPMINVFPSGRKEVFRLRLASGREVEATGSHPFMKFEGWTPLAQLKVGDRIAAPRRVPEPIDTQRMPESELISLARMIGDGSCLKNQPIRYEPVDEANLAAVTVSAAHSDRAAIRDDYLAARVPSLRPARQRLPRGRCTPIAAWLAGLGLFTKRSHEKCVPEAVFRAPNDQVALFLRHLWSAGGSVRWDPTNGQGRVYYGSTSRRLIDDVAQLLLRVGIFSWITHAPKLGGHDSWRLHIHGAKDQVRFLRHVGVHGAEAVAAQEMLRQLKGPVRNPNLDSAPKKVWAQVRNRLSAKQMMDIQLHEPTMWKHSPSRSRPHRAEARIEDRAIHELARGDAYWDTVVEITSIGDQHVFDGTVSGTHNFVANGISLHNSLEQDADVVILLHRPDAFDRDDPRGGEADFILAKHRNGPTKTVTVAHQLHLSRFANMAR
Kind of assay: DnaB intein splicing inhibitors, dose response, biochemical, cell-free fluorescence (AID 449749). Format: functional.

The next assay deals with T5, Protein RecA (Mycobacterium tuberculosis, UniProt P9WHJ3).
T5 sequence (P9WHJ3 whole entry): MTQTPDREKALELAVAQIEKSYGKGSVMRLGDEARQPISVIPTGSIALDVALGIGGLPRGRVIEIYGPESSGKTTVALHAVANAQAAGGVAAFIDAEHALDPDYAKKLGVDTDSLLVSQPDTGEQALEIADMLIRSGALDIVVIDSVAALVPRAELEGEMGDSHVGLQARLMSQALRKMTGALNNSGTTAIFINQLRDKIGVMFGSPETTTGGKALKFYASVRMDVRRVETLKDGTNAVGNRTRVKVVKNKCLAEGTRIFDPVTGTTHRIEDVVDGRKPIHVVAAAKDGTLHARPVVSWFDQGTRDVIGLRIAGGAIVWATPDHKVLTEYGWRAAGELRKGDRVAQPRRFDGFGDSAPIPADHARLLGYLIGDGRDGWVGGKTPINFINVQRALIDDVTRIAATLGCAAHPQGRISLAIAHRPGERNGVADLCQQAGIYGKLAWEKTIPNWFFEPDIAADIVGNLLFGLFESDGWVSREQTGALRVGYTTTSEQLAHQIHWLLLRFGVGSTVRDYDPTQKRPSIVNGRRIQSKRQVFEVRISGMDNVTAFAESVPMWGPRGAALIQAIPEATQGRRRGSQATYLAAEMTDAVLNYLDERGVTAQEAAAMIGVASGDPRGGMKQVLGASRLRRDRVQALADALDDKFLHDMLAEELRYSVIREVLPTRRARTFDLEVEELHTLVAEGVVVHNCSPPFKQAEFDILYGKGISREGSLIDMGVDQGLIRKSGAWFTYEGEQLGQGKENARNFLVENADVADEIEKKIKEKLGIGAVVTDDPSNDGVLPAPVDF
Put plainly: Fluorescence Cell-Free Homogeneous Dose Retest to Identify Inhibitors of RecA-Intein Splicing Activity. [Related pubchem assays (depositor defined):AID2097, AID2223, AID489010, AID492950]. The class given is functional.

A short description of assay [16]: microbe, parasite or virus in culture. Format: functional. The conditions noted are these: Mycobacterium tuberculosis.
For assay [17], the target named is T6, Microphthalmia-associated transcription factor (Homo sapiens, UniProt O75030).
T6 sequence (O75030 whole entry): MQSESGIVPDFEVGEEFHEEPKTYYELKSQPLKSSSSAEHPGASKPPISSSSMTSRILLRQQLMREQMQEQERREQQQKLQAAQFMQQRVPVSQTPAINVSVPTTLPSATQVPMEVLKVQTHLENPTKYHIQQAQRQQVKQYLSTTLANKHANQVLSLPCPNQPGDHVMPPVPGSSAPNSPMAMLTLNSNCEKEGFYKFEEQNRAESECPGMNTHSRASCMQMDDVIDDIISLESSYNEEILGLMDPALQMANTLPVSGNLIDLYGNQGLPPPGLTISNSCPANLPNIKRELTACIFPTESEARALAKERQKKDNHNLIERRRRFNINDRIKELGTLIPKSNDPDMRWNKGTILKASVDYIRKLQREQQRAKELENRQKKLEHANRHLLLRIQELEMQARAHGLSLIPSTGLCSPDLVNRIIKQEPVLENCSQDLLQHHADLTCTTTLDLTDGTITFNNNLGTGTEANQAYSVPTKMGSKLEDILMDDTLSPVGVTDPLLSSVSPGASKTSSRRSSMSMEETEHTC
Put plainly: reducers of TRPM1 reporter luminescence, concentration series – cell-based, SK-MEL-5, cherry-picked, set 3, MITF inhibitor project, dose response (AID 493073).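 Note: SK-MEL-5 melanoma cells with luciferase driven by the MITF target TRPM1 promoter.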 Format: functional.

In assay [18] the target is T3, Corticotropin-releasing factor receptor 2/Corticotropin-releasing factor-binding protein. Kind of assay: Dose Response confirmation of uHTS hits for small molecule antagonists of the CRF-binding protein and CRF-R2 receptor complex. Format: functional. The conditions noted are these: read-out: IC50_Mean.
The subject of the next assay is Vero. Put plainly: mammalian cell viability reduction – secondary assay, cytotoxicity control for West Nile virus antiviral project, dose response (AID 1650). Format: functional. The conditions noted are these: Chlorocebus sabaeus.

Calls of active or inactive are those of the source.

For orientation: AC50 means the concentration giving half of the maximal activity seen.

T2 sequence (Q92731 whole entry): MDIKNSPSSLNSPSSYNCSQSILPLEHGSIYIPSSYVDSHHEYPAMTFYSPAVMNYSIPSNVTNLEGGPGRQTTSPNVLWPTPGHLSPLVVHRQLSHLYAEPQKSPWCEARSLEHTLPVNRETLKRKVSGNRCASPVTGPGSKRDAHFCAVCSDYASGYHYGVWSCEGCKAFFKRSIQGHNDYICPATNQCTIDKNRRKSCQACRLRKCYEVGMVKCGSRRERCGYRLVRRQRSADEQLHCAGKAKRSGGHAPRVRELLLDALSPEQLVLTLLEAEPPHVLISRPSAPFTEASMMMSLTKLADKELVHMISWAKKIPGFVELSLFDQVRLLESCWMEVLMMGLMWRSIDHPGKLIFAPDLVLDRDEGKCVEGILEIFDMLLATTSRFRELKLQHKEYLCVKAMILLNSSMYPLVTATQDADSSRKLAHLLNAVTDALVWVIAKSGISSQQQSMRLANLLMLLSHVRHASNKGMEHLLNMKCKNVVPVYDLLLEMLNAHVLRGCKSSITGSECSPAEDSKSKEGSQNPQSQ
Voltage-gated inwardly rectifying potassium channel KCNH2, sequence (Q12809 whole entry): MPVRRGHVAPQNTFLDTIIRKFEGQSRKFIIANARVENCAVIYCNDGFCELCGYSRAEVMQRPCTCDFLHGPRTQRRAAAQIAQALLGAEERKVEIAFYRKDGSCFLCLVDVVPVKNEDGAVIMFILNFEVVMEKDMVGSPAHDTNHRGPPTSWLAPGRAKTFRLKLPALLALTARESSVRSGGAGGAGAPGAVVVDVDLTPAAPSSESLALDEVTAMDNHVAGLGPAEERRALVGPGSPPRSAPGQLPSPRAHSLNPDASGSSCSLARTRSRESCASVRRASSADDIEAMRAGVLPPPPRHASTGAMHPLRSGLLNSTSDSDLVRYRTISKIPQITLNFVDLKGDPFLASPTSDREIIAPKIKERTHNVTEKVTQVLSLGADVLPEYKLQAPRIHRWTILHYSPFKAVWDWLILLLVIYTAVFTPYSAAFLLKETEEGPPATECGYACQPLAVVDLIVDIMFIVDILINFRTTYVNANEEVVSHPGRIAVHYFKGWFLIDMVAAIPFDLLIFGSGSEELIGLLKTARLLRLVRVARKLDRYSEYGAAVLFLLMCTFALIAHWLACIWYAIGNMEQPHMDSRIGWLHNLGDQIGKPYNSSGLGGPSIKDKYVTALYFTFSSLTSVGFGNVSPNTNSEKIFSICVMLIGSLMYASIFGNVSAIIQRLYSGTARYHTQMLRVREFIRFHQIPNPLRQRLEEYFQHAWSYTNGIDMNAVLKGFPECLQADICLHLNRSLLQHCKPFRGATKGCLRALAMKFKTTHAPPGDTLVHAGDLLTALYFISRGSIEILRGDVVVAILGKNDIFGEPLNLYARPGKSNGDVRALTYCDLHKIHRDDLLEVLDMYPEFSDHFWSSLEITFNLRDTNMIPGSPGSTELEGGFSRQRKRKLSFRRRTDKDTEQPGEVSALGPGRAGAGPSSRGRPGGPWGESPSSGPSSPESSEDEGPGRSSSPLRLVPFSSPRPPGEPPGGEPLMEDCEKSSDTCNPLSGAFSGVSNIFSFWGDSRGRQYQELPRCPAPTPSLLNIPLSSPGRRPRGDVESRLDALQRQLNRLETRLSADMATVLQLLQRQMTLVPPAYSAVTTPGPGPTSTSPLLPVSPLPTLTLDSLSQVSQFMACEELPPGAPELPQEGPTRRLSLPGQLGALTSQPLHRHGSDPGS
Luciferin 4-monooxygenase, sequence (P08659 whole entry): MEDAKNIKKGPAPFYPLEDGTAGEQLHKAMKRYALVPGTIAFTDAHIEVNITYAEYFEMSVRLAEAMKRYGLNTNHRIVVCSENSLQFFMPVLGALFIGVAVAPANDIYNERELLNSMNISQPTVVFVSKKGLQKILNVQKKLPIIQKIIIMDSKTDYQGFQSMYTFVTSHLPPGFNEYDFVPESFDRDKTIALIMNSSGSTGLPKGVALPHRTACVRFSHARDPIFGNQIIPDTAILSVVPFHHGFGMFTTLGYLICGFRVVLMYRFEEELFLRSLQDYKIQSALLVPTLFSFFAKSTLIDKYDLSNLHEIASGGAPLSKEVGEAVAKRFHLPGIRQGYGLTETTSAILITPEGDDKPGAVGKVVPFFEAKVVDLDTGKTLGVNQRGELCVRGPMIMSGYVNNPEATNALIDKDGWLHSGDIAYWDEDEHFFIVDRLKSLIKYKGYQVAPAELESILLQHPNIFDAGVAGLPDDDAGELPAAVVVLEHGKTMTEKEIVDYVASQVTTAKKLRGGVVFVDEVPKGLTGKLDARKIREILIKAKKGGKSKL

On to `CCS(=O)(=O)N1Cc2ccccc2CC1C(=O)N1CCN(c2cccc(C)c2C)CC1` (centres undefined), for which the IC50 at Bcl-2-like protein 10 was 80 µM (inactive); at Estrogen receptor beta [1], > 50 µM (not active); at Estrogen receptor beta [2] it was 2.96 µM (not active).

Regarding `CNC(=O)c1c(NC(=O)c2nc3ccccc3s2)sc2c1CCC2`, the IC50 against Estrogen receptor beta [1] is > 50 µM (not active); on Estrogen receptor beta [2], < 0.023 µM (not active).

For the molecule `O=C(CCc1nc(-c2cccs2)no1)Nc1cnc2ccccc2c1`, in assay [3], the IC50 is > 100 µM (active).

In the case of `O=c1cnn([C@@H]2O[C@H](CO)[C@@H](O)[C@H]2O)c(=O)[nH]1` [6-AZAURIDINE], in assay [4], the CC50 was 11.9 µM (active). Also, the IC50 in the assay “cells [5]” is 2.28 µM (active); in assay [6], 2.32 µM (active).

`Cc1nccc(-c2ccc(-n3c(C)ccc3C)cc2)n1`: the IC50 in [3] was > 100 µM (active).

With `CCOc1ccc2nc(/N=C/c3nc(-c4ccc(Br)cc4)oc3O)sc2c1`, the values for the EC50 in assay [7] and in assay [8] were > 53 µM (inactive) and 0.16 µM (active), respectively.

For `CCc1c(C)c(C#N)c2nc3ccccc3n2c1NCCN(C)C`, the EC50 in assay [9] was > 30 µM (not active); in [10], < 0.1 µM (active); in “cells [11]”, 0.014 µM (active).

For `Cn1ccnc1SCc1cn2cc(Br)ccc2n1`, the EC50 is 7.22 µM (inconclusive) in assay [12], > 50 µM (not active) in the assay on HT-1080, 38.1 µM (active) in assay [13] and 7.92 µM (active) in assay [14].

Regarding `CC1CCCC(NC(=O)NC(=O)CCl)C1C` (centres undefined), the results for the AC50 in [15] and in [17] were 23.2 µM (active) and 12.4 µM (active), respectively. For the same molecule, on Protein RecA, the EC50 is 6.19 µM (active). Besides, the CC50 in [16] was 10.4 µM (active). In addition, the IC50 in assay [6] is 1.02 µM (active).

For `Cc1cc(=O)oc2c1ccc1oc(/C(=N/O)c3ccccc3)c(C)c12`, in assay [7], the EC50 was > 53 µM (inactive). The CC50 in [4] was < 0.1 µM (active); with Vero, 18.1 µM (active). For the same molecule, the IC50 in assay [18] was 24.5 µM (active); in the assay “cells [5]”, 18.3 µM (active).

The values above are taken from ChEMBL document CHEMBL1201862, “PubChem BioAssay data set” (2004).
